Square brackets hold non-standard residues; d marks the D form. Peptide text beside a SMILES is read from it. d(pT) = C[C@H](OP(=O)(O)O)[C@@H](N)C(=O)O; 2Nal = N[C@@H](Cc1ccc2ccccc2c1)C(=O)O; Pip = O=C(O)[C@@H]1CCCCN1
Columns and labels:
full length hPin1 = target: T1, full length hPin1 (Homo sapiens, UniProt Q13526); assay: Isothermal titration calorimetry (ITC), full length hPin1; assay type: binding
T1 construct: The protease free assay ensures reliable measurement of IC50 values for the full-length hPin1
Procedure: FIGS. 3A-B depicts a thermodynamic characterization of the binding of peptide 17 towards full length hPin1 by isothermal titration calorimetry (ITC). FIG. 3A depicts peaks that represent the heat evolved after injection of peptide 17 into the sample cell containing hPin1. After the 11th injection only the heat of dilution is observed. The experiment was performed at 10 C. FIG. 3B depicts integrals of the corresponding peaks of panel A are plotted against the molar ratio of peptide 17 and hPin1. The solid line represents a nonlinear least squares fit analysis of the binding heat assuming a single binding site model with the following parameters: ΔHbind=−4561±36 cal/mol, TΔSbind=5433±529 cal/mol, n=0.96 (binding stoichiometry) and KAss=5.18×10^7±7×10^6 M^−1 (association constant).
(§1) Calorimetric experiments were performed using a VP-ITC titration calorimeter (MicroCal, Inc, Northampton, Mass.) at 10° C. All solutions were degassed under vacuum prior to use. Solutions of hPin1 and hPin1 PPIase domain were dialyzed against 10 mM Hepes (pH 7.8). The protein concentration in the sample cell was adjusted to 6.5 μM using the same batch of buffer. Protein concentrations were determined as described above. The volume of the protein solution in the sample cell was 1.4 ml. The injection syringe was filled with 300 μl solution of peptide 17 (see table III) (250 μM in the same batch of buffer as used for dialyses). Each titration experiment consisted of a single 1 μl injection followed by 16 identical injections of 5 μl solution of peptide 17.
In principle, minimally four forms of a competing substrate in the presence of hPin1 have to be considered, the free cis and trans isomers together with two Michaelis complexes. This four-site exchange model of PPIase catalysis involves understanding predisposing factors of the stability of hPin1/substrate complexes, expected to be weaker, than the stability for those formed by phosphopeptides lacking substrate properties. The consequent increase in inhibitory potency could be realized by a transition state destabilizing substitution in peptide 15. Previous studies have shown that following C^α-stereocenter inversion of a substrate at the P1 position the parvulins fully retain substrate-like active site affinity for the derivatives while catalytic rate acceleration is abolished (Schiene et al., 1998). […] To optimize solute diffusion after mechanical injection of the Pin1 binding peptides into the viscous Xenopus laevis egg cytosol, the molecular weight of 1376.5 for peptide 16 was reduced to 823.8 for peptide 17. Following chain truncation peptide 17 maintained high affinity for Pin1 (Table III). To ensure domain selectivity, the binding of peptide 17 towards hPin1 was characterized using the isothermal titration calorimetry (ITC). […] The dissociation constant determined with ITC is in the same range as obtained in the protease-free PPIase assay (Table III).

hCyp18 = hCyp18 (Homo sapiens, UniProt P62937); assay: Protease coupled PPIase assay, hCyp18; assay type: biochemical
Procedure: PPIase activities were monitored on a Hewlett-Packard 8452A diode array spectrophotometer according to Fischer et al., 1984 and Zhang et al., 2002. The hPar14 PPIase activity was measured with Suc-Ala-Arg-Pro-Phe-NH-Np (SEQ ID NO: 3) (final concentration 75 μM) as substrate and α-chymotrypsin (final concentration 60 μM) as isomer specific protease. PPIase activity of hCyp 18 and FKBP12 were measured using Suc-Ala-Ala-Pro-Phe-NH-Np (SEQ ID NO: 7) as substrate (final concentration 16 μM) and α-chymotrypsin (final concentration 60 μM) as isomer specific protease. PPIase activity of hPin1 was measured with Ac-Ala-Ala-Ser(PO3H2)-Pro-Arg-NH-Np (SEQ ID NO: 4) (final concentration 10 μM) as substrate and trypsin (final concentration 60 μM) as isomer specific protease. […] Measurements were monitored at 390 nm.
Data analysis was performed by single-exponential nonlinear regression using the SigmaPlot Scientific Graphing System Version 5.00 (Jandel Corp.). […] The rate constant k0 was determined in the absence of Pin1. The first order rate constants kenz was calculated from the equation kenz=kobs−k0. IC50 and Ki values were determined by fitting the first order rate constants kenz against the concentration of the inhibitory peptide by nonlinear regression according to Schutkowski et al., 1995 or a model for tight binding inhibitors (Morrison, 1969).

hPin1 PPIase domain = target: T2, hPin1 PPIase domain (Homo sapiens, UniProt Q13526); assay: Isothermal titration calorimetry (ITC), isolated PPIase domain; assay type: binding
T2 construct: The hPin1 PPIase domain comprising of amino acid residues Gly45-Glu163 was amplified by PCR; made in house; host or cells: E. coli BL21(DE3) (pET28a)
Procedure: as §1
(§2) The stability of peptides 15 and 17 in cytoplasmic extracts from HeLa cells was investigated using MALDI-TOF mass spectrometry and capillary electrophoresis, respectively. In the cytosolic incubation mixture, streptavidin sepharose beads served to isolate peptide 15 fragments after prolonged incubation. […] Therefore, phosphopeptides are useless for evaluating Pin1 functions in vivo unless dephosphorylation can be avoided.

[1] = Stability against cellular phosphatases and proteases in HeLa cell lysate; assay type: in vitro ADME
Procedure: FIG. 4 depicts the stability of peptide 17 against cellular phosphatases and proteases. Peptide 17 was incubated for 3 hours in HeLa cell lysate in the absence of phosphatase and protease inhibitors. The mixture was then analyzed by capillary electrophoresis (short dashed line). As controls, the untreated peptide 17 (solid line) and its nonphosphorylated derivative (dotted line) were used. The temperature of the capillary thermostating system was kept at 16° C. Separation buffer was 50 mM sodium phosphate, pH 7.0. Signals were detected at 220 nm.
Peptide 17 was incubated with HeLa cell lysate for 3 h and analyzed with capillary electrophoresis using UV detection at 220 nm on a P/ACE MDQ (Beckman Coulter, Palo Alto, Calif.) system. Fused-silica capillaries (Polymicro Technologies) of 40 cm length at an operation voltage of 20 kV were used. As references, untreated peptide 17 and its nonphosphorylated derivative were used. The samples were hydrodynamically injected with 3.45 kPa for 10 s. 50 mM sodium phosphate buffer (pH 7.0) was used as separation buffer. The system temperature was kept at 16° C.
as §2

[2] = ITC, 10° C., single binding site model

T1 sequence (Q13526 whole entry): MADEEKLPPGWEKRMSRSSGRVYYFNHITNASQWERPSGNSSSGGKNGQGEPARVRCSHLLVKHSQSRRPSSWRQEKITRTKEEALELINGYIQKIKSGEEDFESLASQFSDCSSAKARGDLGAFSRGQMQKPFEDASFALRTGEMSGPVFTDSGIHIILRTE
T2 sequence (Q13526 45-163): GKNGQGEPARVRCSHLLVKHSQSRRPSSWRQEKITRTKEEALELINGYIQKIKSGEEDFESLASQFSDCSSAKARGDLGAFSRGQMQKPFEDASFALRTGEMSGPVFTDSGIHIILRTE
Chain of hCyp18 (P62937 whole entry): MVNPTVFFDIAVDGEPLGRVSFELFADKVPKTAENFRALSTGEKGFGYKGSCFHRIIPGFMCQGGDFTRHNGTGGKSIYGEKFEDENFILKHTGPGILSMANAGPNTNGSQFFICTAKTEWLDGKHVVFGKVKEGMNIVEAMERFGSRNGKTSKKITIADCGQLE

CC(=O)N[C@@H](Cc1ccccc1)C(=O)N[C@@H](C(=O)N1CCCC[C@H]1C(=O)N[C@@H](Cc1ccc2ccccc2c1)C(=O)N[C@@H](CCC(N)=O)C(N)=O)[C@H](C)OP(=O)(O)O [Peptide 17, Ac-Phe-D-Thr(PO3H2)-Pip-Nal-Gln-NH2] (Ac-F[d(pT)][Pip][2Nal]Q-NH2)
Kd (full length hPin1): 19.3 ± 2.6 nM
KAss (association constant) (full length hPin1; [2]): 5.18e+07 ± 7e+06 M⁻¹
binding enthalpy ΔHbind (full length hPin1; [2]): -4.561 ± 0.036 kcal/mol
binding entropy TΔSbind (full length hPin1; [2]): 5.433 ± 0.529 kcal/mol
n (binding stoichiometry) (full length hPin1; [2]): 0.96
fold tighter binding of D isomer compared to L isomer (full length hPin1; Pin1): 30 fold
inhibition of Cyp18 (hCyp18): no inhibition
thermodynamic constants, isolated PPIase domain versus full-length hPin1 (hPin1 PPIase domain): same thermodynamic constants
stability against HeLa cell lysate ([1]; 3 hours of incubation, no phosphatase and protease inhibitors, capillary electrophoresis): complete stability
stability in cytosol ([1]; discussion statement (FIG. 4)): sufficiently stable
